According to US20170049782A1 (SK CHEMICALS CO., LTD., priority 2014, published 2017):
Where two headings read alike, the source gives them in different places.

What was measured:
[1] = cited from earlier work
[2] = Solubility / dissolved fraction of active ingredient (I) in water (background); assay type: physicochemical
Text: At single administration and repetitive administration, there is a difference in blood concentration depending on whether taking food or not, and food intake is blamed for causing the difference (Xia et al., British Journal of Clinical Pharmacology, 2009, 68:1, p 77-88). This is a reason for decrease of drug efficacy to patients taking food irregularly, and a negative cause, which may make patients feel uncomfortable for taking drug. […] Thus, its bioavailability reach to 100% when it is administered with food because residual insoluble drugs are absorbed by oil content present in the food and a surfactant such as bile acid secreted in the body (Samama et al. Thrombosis Journal 2013, 11:11, p 1-7).

drug dissolved in dissolution solution ([2]; 10 mg in 900 ml): ≥ 90%
drug dissolved in dissolution solution ([2]; 20 mg in 900 ml): 50%
SMILES: O=C(NC[C@H]1CN(c2ccc(N3CCOCC3=O)cc2)C(=O)O1)c1ccc(Cl)s1 [active ingredient (I)]
bioavailability ([1]; 10 mg, regardless of a meal): 100%
bioavailability ([1]; 20 mg, administered before a meal / under fasted condition): about 66%
bioavailability ([1]; 20 mg, administered with food): 100%
